Values of other authors, collected in article PMC5520971 (Organic & biomolecular chemistry, 2017).

Tests used:
[1] = tested on: hepatocellular carcinoma cells; settings: ref [18]
[2] = tested on: hepatocellular carcinoma cells; settings: ref [18]; remark: listed apart in the source

CC1=C(/C=C/C(C)=C/C=C/C(C)=C/C(=O)O)C(C)(C)CCC1 [all-trans retinoic acid]
growth of hepatocellular carcinoma cells in vitro [1]: selectively inhibited the growth
growth of hepatocellular carcinoma cells in a mouse xenograft model [2]: selectively inhibited the growth
